In patent US11198695B2, “Fused ring derivative having MGAT-2 inhibitory activity” (Shionogi & Co., Ltd., priority 2017, dated 2021):

Target: recombinant human MGAT2 (Homo sapiens (Human), UniProt Q3SYC2)
Test: Measurement of human MGAT2 inhibitory activity
Assay type: biochemical
Details: read-out: IC50 (concentration exhibiting 50% enzyme inhibition), Table 52
Procedure: A full-length human MGAT2 gene to which a Flag-tag had been added at the N-terminal was inserted into pFastBac (from Invitrogen). A recombinant baculovirus was produced in accordance with the protocol for a Bac-to-Bac baculovirus expression system (produced by Invitrogen), and Sf-9 cells were infected therewith. The cells were collected and sonicated, and then the membrane fraction was collected through centrifugation. Western blotting analysis with an anti-Flag antibody was performed for the membrane fraction to confirm expression, and the membrane fraction was used as a recombinant human MGAT2 enzyme solution.
Solutions of the compounds of the present invention in DMSO were each aliquoted into 0.2-μL portions in a 384-well polystyrene microplate produced by Corning Incorporated, and 5 μL of an enzyme solution prepared with an assay buffer (100 mmol/L phosphate buffer (pH 7.4) containing 2 mmol/L DTT) and 5 μL of a substrate solution (100 mmol/L phosphate buffer (pH 7.4), 30 μmol/L 2-Oleoylglycerol, 10 μmol/L Oleoyl-CoA) were added thereto, and the resultant was stirred and centrifuged, and incubated in a moist chamber at room temperature for 1 hour. After enzymatic reaction, 50 μL of a quenching solution (containing 0.2 μmol/L Diolein-d5, 0.4% formic acid, and 50% isopropanol) containing Internal Standard (IS) was added to terminate the reaction, and the resultant was sealed in a plate produced by Shimadzu GLC Ltd., and then stirred and centrifuged, and measurement was performed by using an electrospray ionization method with a RapidFire360 and Agilent 6550 Q-TOF mass spectrometer. Diolein as a reaction product (P) of 2-Oleoylglycerol as the substrate and an ammonium adduct ion of the IS were detected, and the peak intensity ratio, P/IS, was calculated from the peak heights to evaluate the inhibitory activity. Inhibitory activities with/without addition of enzyme were defined as Control (+)/Control (−), respectively, and the respective % inhibitions were defined as 0% inhibition and 100% inhibition. The inhibitory activity was calculated from formula below with TIBCO Spotfire (produced by TIBCO Software Inc.): Inhibitory activity (%)=[1−{Sample−Control(−)}/{Control(+)−Control(−)}]*100 where Sample indicates a peak intensity ratio: P/IS, when the compound of the present invention was added.

Sequence of recombinant human MGAT2 (Q3SYC2 whole entry): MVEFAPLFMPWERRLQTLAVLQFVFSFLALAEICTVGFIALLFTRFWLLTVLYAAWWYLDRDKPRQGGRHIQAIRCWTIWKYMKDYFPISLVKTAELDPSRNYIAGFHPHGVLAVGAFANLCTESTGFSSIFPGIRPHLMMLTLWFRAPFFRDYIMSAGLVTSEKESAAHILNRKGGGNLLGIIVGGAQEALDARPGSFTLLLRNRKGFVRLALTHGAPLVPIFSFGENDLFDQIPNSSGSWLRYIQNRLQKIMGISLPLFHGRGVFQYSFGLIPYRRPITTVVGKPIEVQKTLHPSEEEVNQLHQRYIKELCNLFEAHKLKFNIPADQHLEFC

SMILES | IC50 [nM]
CCCCn1nc(NC(=O)CS(C)(=O)=O)c2c1C[C@]1(CCc3cc(OCCCC(F)(F)F)ccc31)NC2=O [Compound I-63] | 400
CS(=O)(=O)CC(=O)Nc1nn(CCOCC(F)F)c2c1C(=O)N[C@@]1(CCc3cc(OCCCC(F)(F)F)ccc31)C2 [Compound I-64] | 410
CS(=O)(=O)CC(=O)Nc1nn(CCC2CCCCC2)c2c1C(=O)N[C@@]1(CCc3cc(OCCCC(F)(F)F)ccc31)C2 [Compound I-65] | 660
CS(=O)(=O)CC(=O)Nc1nn(CCn2cccn2)c2c1C(=O)N[C@@]1(CCc3cc(OCCCC(F)(F)F)ccc31)C2 [Compound I-66] | 970
O=C1N[C@@]2(CCc3cc(OCC(F)(F)F)ccc32)Cc2nn(CCC3CC3)c(C(=O)NC3CS(=O)(=O)C3)c21 [Compound I-68] | 760
CC(C)(O)CCn1nc2c(c1NC(=O)CS(C)(=O)=O)C(=O)N[C@@]1(CCc3cc(OCCCC(F)(F)F)ccc31)C2 [Compound I-69] | 55
CS(=O)(=O)CC(=O)Nc1c2c(nn1CCC1CC1)C[C@](c1ccc(OCC(F)(F)F)cc1)(C(F)(F)F)NC2=O [Compound I-70] | 54
CS(=O)(=O)CC(=O)Nc1c2c(nn1CCC1CC1)C[C@@]1(CCc3cc(OCC(F)(F)F)ccc31)NC2=O [Compound I-71] | 3.9
O=C1N[C@@]2(CCc3cc(OCCCC(F)(F)F)ccc32)Cc2nn(CCC3CC3)c(C(=O)NS(=O)(=O)C3CC3)c21 [Compound I-72] | 8.3
CS(=O)(=O)CC(=O)Nc1nn(CC2CCC(C(F)(F)F)CC2)c2c1C(=O)N[C@@]1(CCc3cc(OCCCC(F)(F)F)ccc31)C2 (stereo partly shown) [Compound I-73] | 290
Cc1cccc(Cn2nc(NC(=O)CS(C)(=O)=O)c3c2C[C@]2(CCc4cc(OCCCC(F)(F)F)ccc42)NC3=O)c1 [Compound I-74] | 520
Cc1ccccc1Cn1nc(NC(=O)CS(C)(=O)=O)c2c1C[C@]1(CCc3cc(OCCCC(F)(F)F)ccc31)NC2=O [Compound I-75] | 580
CS(=O)(=O)CC(=O)Nc1c2c(nn1C1CCCC1)C[C@]1(CCc3cc(OCC(F)(F)F)ccc31)NC2=O [Compound I-76] | 95.5
CS(=O)(=O)CC(=O)Nc1c2c(nn1-c1ccc(Cl)cn1)C[C@]1(CCc3cc(OCC(F)(F)F)ccc31)NC2=O [Compound I-77] | 1
O=C(Nc1c2c(nn1CCC1CC1)C[C@]1(CCc3cc(OCC(F)(F)F)ccc31)NC2=O)c1cccnc1 [Compound I-78] | 37.5
O=C(Nc1c2c(nn1CCC1CC1)C[C@]1(CCc3cc(OCC(F)(F)F)ccc31)NC2=O)c1ccccn1 [Compound I-79] | 860
O=C(Nc1c2c(nn1CCC1CC1)C[C@]1(CCc3cc(OCC(F)(F)F)ccc31)NC2=O)c1ccncc1 [Compound I-80] | 16
O=C(Nc1c2c(nn1CCC1CC1)C[C@]1(CCc3cc(OCC(F)(F)F)ccc31)NC2=O)c1cccnn1 [Compound I-81] | 240
O=C1N[C@@]2(CCc3cc(OCC(F)(F)F)ccc32)Cc2nn(CCC3CC3)c(CNC(=O)C3CCCC3)c21 [Compound I-82] | 230
CC1(C(=O)NCc2c3c(nn2CCC2CC2)C[C@]2(CCc4cc(OCC(F)(F)F)ccc42)NC3=O)COC1 [Compound I-83] | 110
N#CCNC(=O)c1c2c(nn1CCC1CC1)C[C@]1(CCc3cc(OCC(F)(F)F)ccc31)NC2=O [Compound I-84] | 430
O=C1N[C@@]2(CCc3cc(OCC(F)(F)F)ccc32)Cc2nn(CCC3CC3)c(C(=O)NCCO)c21 [Compound I-85] | 570
O=C1N[C@@]2(CCc3cc(OCC(F)(F)F)ccc32)Cc2nn(CCC3CC3)c(C(=O)NC3CCOC3)c21 (stereo partly shown) [Compound I-86] | 960
CS(=O)(=O)CCNC(=O)c1c2c(nn1CCC1CC1)C[C@]1(CCc3cc(OCC(F)(F)F)ccc31)NC2=O [Compound I-87] | 440
CC1(NC(=O)c2c3c(nn2CCC2CC2)C[C@]2(CCc4cc(OCC(F)(F)F)ccc42)NC3=O)COC1 [Compound I-88] | 270
O=C1N[C@@]2(CCc3cc(OCC(F)(F)F)ccc32)Cc2nn(CCC3CC3)c(C(=O)NCC3(CO)COC3)c21 [Compound I-89] | 55
O=C1N[C@@]2(CCc3cc(OCC(F)(F)F)ccc32)Cc2nn(CCC3CC3)c(C(=O)NCC3(O)CCC3)c21 [Compound I-90] | 33
CS(=O)(=O)CC(=O)Nc1c2c(nn1-c1ccc(Br)cn1)C[C@]1(CCc3cc(OCC(F)(F)F)ccc31)NC2=O [Compound I-91] | 1.2

SMILES | IC50 [nM]
Cc1cc(C(=O)Nc2c3c(nn2CCC2CC2)C[C@]2(CCc4cc(OCC(F)(F)F)ccc42)NC3=O)on1 [Compound I-92] | 73
CS(=O)(=O)CC(=O)Nc1c2c(nn1CCC1CC1)C[C@]1(CCc3cc(C#N)ccc31)NC2=O [Compound I-93] | 160
CS(=O)(=O)CC(=O)Nc1c2c(nn1CCC1CC1)C[C@]1(CCc3cc(OCC(F)(F)F)cc(F)c31)NC2=O [Compound I-94] | 3.7
CS(=O)(=O)CC(=O)Nc1c2c(nn1-c1ccc(C(F)(F)F)cc1)C[C@]1(CCc3cc(OCC(F)(F)F)ccc31)NC2=O [Compound I-95] | 5.1
CS(=O)(=O)CC(=O)Nc1c2c(nn1C1CCCCC1)C[C@]1(CCc3cc(OCC(F)(F)F)ccc31)NC2=O [Compound I-96] | 54
Cc1ccc(-n2nc3c(c2NC(=O)CS(C)(=O)=O)C(=O)N[C@@]2(CCc4cc(OCC(F)(F)F)ccc42)C3)cc1 [Compound I-97] | 6.9
Cc1cccc(-n2nc3c(c2NC(=O)CS(C)(=O)=O)C(=O)N[C@@]2(CCc4cc(OCC(F)(F)F)ccc42)C3)c1 [Compound I-98] | 8.5
CS(=O)(=O)CC(=O)Nc1c2c(nn1-c1ccc(F)cc1)C[C@]1(CCc3cc(OCC(F)(F)F)ccc31)NC2=O [Compound I-99] | 6.2
COc1ccc(-n2nc3c(c2NC(=O)CS(C)(=O)=O)C(=O)N[C@@]2(CCc4cc(OCC(F)(F)F)ccc42)C3)cc1 [Compound I-100] | 32
CS(=O)(=O)CC(=O)Nc1c2c(nn1-c1ccccn1)C[C@]1(CCc3cc(OCC(F)(F)F)ccc31)NC2=O [Compound I-101] | 17
CS(=O)(=O)CC(=O)Nc1c2c(nn1CCC1CC1)C[C@]1(CCc3cc(NCC(F)(F)F)ccc31)NC2=O [Compound I-102] | 25
CS(=O)(=O)CC(=O)Nc1c2c(nn1-c1ccccn1)C[C@](c1ccc(OCC(F)(F)F)cc1)(C(F)(F)F)NC2=O [Compound I-103] | 320
CS(=O)(=O)CC(=O)Nc1c2c(nn1-c1ccccn1)C[C@@]1(CCc3cc(OCC(F)(F)F)ccc31)NC2=O [Compound I-104] | 12
CS(=O)(=O)CC(=O)Nc1c2c(nn1-c1ccccn1)C[C@]1(CCOc3cc(OCC(F)(F)F)ccc31)NC2=O [Compound I-105] | 6.8
CS(=O)(=O)CC(=O)Nc1c2c(nn1-c1ccc(C3CC3)cc1)C[C@]1(CCc3cc(OCCCC(F)(F)F)ccc31)NC2=O [Compound I-106] | 11
O=C1N[C@@]2(CCc3cc(OCC(F)(F)F)cc(F)c32)Cc2nn(-c3ccccn3)c(-c3nnn[nH]3)c21 [Compound I-107] | 760
O=C1N[C@@]2(CCc3cc(OCC(F)(F)F)ccc32)Cc2nn(CCC3CC3)c(C(=O)NS(=O)(=O)C(F)(F)F)c21 [Compound I-108] | 2.9
O=C1N[C@@]2(CCc3cc(OCC(F)(F)F)ccc32)Cc2nn(CCC3CC3)c(C(=O)NS(=O)(=O)C(F)F)c21 [Compound I-109] | 6.1
CC1(S(=O)(=O)NC(=O)c2c3c(nn2CCC2CC2)C[C@]2(CCc4cc(OCC(F)(F)F)ccc42)NC3=O)CC1 [Compound I-110] | 10
O=C1N[C@@]2(CCc3cc(OCC(F)(F)F)ccc32)Cc2nn(CCC3CC3)c(C(=O)NS(=O)(=O)c3ccccc3)c21 [Compound I-111] | 190
COCCS(=O)(=O)NC(=O)c1c2c(nn1CCC1CC1)C[C@]1(CCc3cc(OCC(F)(F)F)ccc31)NC2=O [Compound I-112] | 44.5
O=C1N[C@@]2(CCc3cc(OCC(F)(F)F)ccc32)Cc2nn(CCC3CC3)c(C(=O)NS(=O)(=O)C3CCCC3)c21 [Compound I-113] | 810
COCCCS(=O)(=O)NC(=O)c1c2c(nn1CCC1CC1)C[C@]1(CCc3cc(OCC(F)(F)F)ccc31)NC2=O [Compound I-114] | 110
CCOCCS(=O)(=O)NC(=O)c1c2c(nn1CCC1CC1)C[C@]1(CCc3cc(OCC(F)(F)F)ccc31)NC2=O [Compound I-115] | 64
O=C1N[C@@]2(CCc3cc(OCC(F)(F)F)ccc32)Cc2nn(CCC3CC3)c(C(=O)NS(=O)(=O)CC3CC3)c21 [Compound I-116] | 260
CC(C)S(=O)(=O)NC(=O)c1c2c(nn1CCC1CC1)C[C@]1(CCc3cc(OCC(F)(F)F)ccc31)NC2=O [Compound I-117] | 51
CC(C)(C)S(=O)(=O)NC(=O)c1c2c(nn1CCC1CC1)C[C@]1(CCc3cc(OCC(F)(F)F)ccc31)NC2=O [Compound I-118] | 370
